{
  "source": "patent US11160869B2",
  "about": "(priority 2019, dated 2021)",
  "key": {"[1]": {"system": "growth factors, chemokines and cytokines", "type": "in vivo, mice", "settings": "mouse, in vivo"}, "[2]": {"experiment": "Single oral capsule dose in NHP: plasma caffeine by LC-MS/MS", "type": "in vivo, Macaca fascicularis", "procedure": "In order to quantitate plasma caffeine levels, an LC-MS/MS detection system was employed. A 25-μL matrix aliquot was fortified with 25 μL of 2.00 μg/mL caffeine-trimethyl-^13C3 internal standard working solution. Analytes were isolated through supported liquid extraction (SLE). A portion of the eluate was transferred and evaporated under a nitrogen stream at approximately 45° C., and the remaining residue reconstituted with 500 μL of water/acetonitrile (95:5, v/v). The final extract was analyzed via HPLC with MS/MS detection using positive ion electrospray and reverse phase chromatography. Caffeine concentration was determined using similarly run calibration controls.\nIL-10 delivery construct dosing at multiple fixed doses in non-naïve adult male Macaca fascicularis was conducted by Valley Biosystems (West Sacramento, Calif.). […] Dosing groups are described in TABLE 45."}, "[3]": {"experiment": "Surfactant evaluation under shear stress (vortex 800 rpm 4 h): visual, turbidity, SEC-HPLC", "type": "physicochemical", "settings": "for effect of surfactant on IL-10 delivery construct forms (SEC-HPLC): 1xPBS, before/after vortexing", "procedure": "Following vortexing, the solution was visually inspected. The sample without a surfactant was slightly hazy while the samples with the surfactant were clear after vortexing. The turbidity (340-360 nm) of the solution was assessed after vortexing.\nSEC-HPLC was carried out on the IL-10 delivery construct formulations before (FIG. 93) and after (FIG. 94) vortexing (TABLE 48)."}, "[4]": {"experiment": "Intraluminal injection in T-cell transfer model: rhIL-10 ELISA in intestinal tissue and serum", "type": "in vivo, BALB/c and SCID mice", "settings": "intraluminal injection", "procedure": "This study was conducted to examine the potential for the carrier protein to transport rhIL-10 from the intestinal lumen into the submucosal region in inflamed intestinal tissue. The T lymphocyte (T cell) transfer model was used as it is a well-established model of induced chronic colitis in mice and presents many of the essential immunological hallmarks observed in IBD patients. Nine BALB/c mice and twelve SCID mice, including nine with the colitis-like model of inflammation, were dosed with 20 μl of test article via intraluminal injection into the distal ileum and the proximal, middle and distal colon. […] In each group, two mice were terminated 10 minutes after intraluminal injections, and one was terminated 40 minutes after intraluminal injections. Intestinal tissue and serum were collected. Collected tissue was fixed, embedded, sectioned and H&E stained for histological assessment of inflammatory status. ELISA analysis to measure rhIL 10 was performed on lysates prepared from intestinal tissue and serum (FIGS. 106A-106D)."}, "[5]": {"system": "IL-1Ra", "experiment": "Systemic IL-1Ra in non-inflamed mice (ELISA MSD)", "type": "in vivo", "settings": "construct 10 mg/kg; rhIL-10 3 mg/kg; oral"}, "[6]": {"system": "STAT3", "experiment": "STAT3 phosphorylation in J774.2 macrophage cells"}, "[7]": {"system": "STAT3", "experiment": "pSTAT3/total STAT3 in colon tissue of non-inflamed mice (ELISA MSD)", "type": "in vivo", "settings": "construct 1 mg/kg; rhIL-10 0.9 mg/kg; oral"}, "[8]": {"system": "STAT3", "experiment": "pSTAT3 induction and hIL-10 in intestinal tissue 40 min after oral gavage, immunofluorescence and image analysis", "type": "in vivo, rat", "settings": "40 min post oral gavage", "procedure": "This observation is consistent with findings in mice that intestinal epithelial cells can express IL-10 receptors at their apical surface under certain conditions associated with development and maintenance of barrier function. […] In order to quantify how test articles affected intestinal IL-10 signal transduction pathways, image analysis was performed: high-throughput image batches were collected, segmented by epithelial versus lamina propria localization, and then by cellular features."}, "[9]": {"biological_target": "T1, IL-10RA and IL-10RB (Homo sapiens, UniProt Q08334+Q13651)", "T1 sequence (Q13651 22-578)": "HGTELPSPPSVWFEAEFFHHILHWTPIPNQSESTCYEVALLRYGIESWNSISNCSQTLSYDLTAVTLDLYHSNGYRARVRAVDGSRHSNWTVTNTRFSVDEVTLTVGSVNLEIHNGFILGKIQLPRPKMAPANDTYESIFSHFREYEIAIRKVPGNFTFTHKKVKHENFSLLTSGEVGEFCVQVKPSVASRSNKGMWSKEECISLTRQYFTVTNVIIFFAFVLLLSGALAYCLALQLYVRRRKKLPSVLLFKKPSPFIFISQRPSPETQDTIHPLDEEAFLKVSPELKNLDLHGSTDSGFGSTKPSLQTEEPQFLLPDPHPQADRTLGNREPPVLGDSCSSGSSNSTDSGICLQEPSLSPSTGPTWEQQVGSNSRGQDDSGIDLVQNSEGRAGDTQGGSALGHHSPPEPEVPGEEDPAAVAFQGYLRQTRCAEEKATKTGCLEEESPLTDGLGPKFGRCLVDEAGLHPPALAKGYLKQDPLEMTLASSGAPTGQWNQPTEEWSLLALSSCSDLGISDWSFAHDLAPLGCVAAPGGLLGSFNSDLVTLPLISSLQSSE", "T1 sequence (Q08334 20-325)": "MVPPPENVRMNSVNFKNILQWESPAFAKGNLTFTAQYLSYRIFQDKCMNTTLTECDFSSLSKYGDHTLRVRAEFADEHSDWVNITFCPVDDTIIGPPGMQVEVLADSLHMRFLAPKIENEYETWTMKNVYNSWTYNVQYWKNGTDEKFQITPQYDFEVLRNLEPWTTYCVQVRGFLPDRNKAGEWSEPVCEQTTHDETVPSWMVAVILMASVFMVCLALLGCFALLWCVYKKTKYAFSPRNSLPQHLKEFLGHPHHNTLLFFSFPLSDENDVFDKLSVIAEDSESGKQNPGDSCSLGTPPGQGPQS", "experiment": "IL-10 receptor dimerization luminescence assay in engineered U2OS cells", "settings": "6 h"}},
  "data": [
    {"molecule": "Nc1ccc(O)c(C(=O)O)c1", "note": "[5-ASA, 5-aminosalicylic acid, reference compound]", "values": [
      {"measurement": "oxazolone-induced increase in plasma GCSF/CSF3", "setting": "[1]", "result": "attenuated"}
    ]},
    {"molecule": "Cn1c(=O)c2c(ncn2C)n(C)c1=O", "note": "[caffeine]", "values": [
      {"measurement": "time at which absorption of caffeine was observable (capsule opening)", "setting": "[2]; all doses", "result": "2-3 hours post dose"},
      {"measurement": "Cmax", "setting": "[2]; male, cynomolgus monkey, plasma, po, 1 mg dosing group, 1x10 mg caffeine", "result": 1350, "unit": "ng/mL"},
      {"measurement": "Cmax", "setting": "[2]; male, cynomolgus monkey, plasma, po, 20.5 mg dosing group, 1x10 mg caffeine", "result": 800, "unit": "ng/mL"},
      {"measurement": "Cmax", "setting": "[2]; male, cynomolgus monkey, plasma, po, 82 mg dosing group, 4x10 mg caffeine", "result": 3790, "unit": "ng/mL"},
      {"measurement": "Cmax", "setting": "[2]; male, cynomolgus monkey, plasma, po, 4x10 mg caffeine", "result": 6120, "unit": "ng/mL"},
      {"measurement": "Tmax", "setting": "[2]; male, cynomolgus monkey, plasma, po, all doses", "result": 4, "unit": "h"}
    ]},
    {"molecule": "polysorbate 20", "values": [
      {"measurement": "absorbance in the 340-360 nm range after vortexing", "setting": "[3]; 0.1% in 1xPBS", "result": "increase in absorbance was also observed"},
      {"measurement": "effect of surfactant on IL-10 delivery construct forms (SEC-HPLC)", "setting": "[3]", "result": "most amount of monomer before vortexing"}
    ]},
    {"molecule": "polysorbate 80", "values": [
      {"measurement": "effect of surfactant on IL-10 delivery construct forms (SEC-HPLC)", "setting": "[3]", "result": "increase in HMW aggregates and monomers"}
    ]},
    {"molecule": "rhIL-10: recombinant human IL-10, commercial preparation, comparator [reference compound]", "values": [
      {"measurement": "rhIL-10 in serum of inflamed animals", "setting": "[4]", "result": "minimal amounts of rhIL-10 were detected"},
      {"measurement": "increase of systemic IL-1Ra", "setting": "[5]", "result": "did not significantly increase"},
      {"measurement": "amplitude of pSTAT3/total STAT3", "setting": "[6]", "result": 2.19, "unit": "%"},
      {"measurement": "increase in ratio of pSTAT3 to total STAT3", "setting": "[7]", "result": "did not significantly alter"},
      {"measurement": "hIL-10 and pSTAT3 in intestinal tissue", "setting": "[8]", "result": "exhibited pSTAT3 induction in enterocytes but not in cells within the lamina propria"},
      {"measurement": "EC50", "setting": "[9]; read-out: EC50, IL-10R dimerization", "result": 0.0915, "unit": "nM"}
    ]},
    {"molecule": "cholix derived carrier: truncated non-toxic cholix variant of 386 amino acids, carrier alone (protein) VEEALNIFDECRSPCSLTPEPGKPIQSKLSIPSDVVLDEGVLYYSMTINDEQNDIKDEDKGESIITIGEFATVRATRHYVNQDAPFGVIHLDITTENGTKTYSYNRKEGEFAINWLVPIGEDSPASIKISVDELDQQRNIIEVPKLYSIDLDNQTLEQWKTQGNVSFSVTRPEHNIAISWPSVSYKAAQKEGSRHKRWAHWHTGLALCWLVPMDAIYNYITQQNCTLGDNWFGGSYETVAGTPKVITVKQGIEQKPVEQRIHFSKGNAMSALAAHRVCGVPLETLARSRKPRDLTDDLSCAYQAQNIVSLFVATRILFSHLDSVFTLNLDEQEPEVAERLSDLRRINENNPGMVTQVLTVARQIYNDYVTHHPGLTPEQTSAGAQA", "values": [
      {"measurement": "EC50, IL-10R dimerization", "setting": "[9]", "result": "did not induce IL-10R dimerization"}
    ]}
  ]
}
